The values below come from patent publication US6013642A, “Use of estrone derivatives as steroid sulphatase inhibitors” (priority 1994, dated 2000).

The term pIC50 denotes −log10 of the IC50, conventionally taken in molar units. Low values mean a high IC50, high ones a low IC50.

Structures are written as SMILES. pIC50: −log10 of the molar value.

Experiment [1] concerns mouse contact sensitisation model. Description: Contact sensitisation (oxazalone, ear swelling) in mice. Type of experiment: in vivo. As for the experimental part: 1. Contact Sensitisation (CS)
On day 0, mice were painted on their shaved right flank with 50 μl 2.5% oxazalone or vehicle (acetone 4:1 olive oil). On day 5 animals were challenged on their dorsal right ear surface with 25 μl of either 0.75% or 0.25% oxazalone. Prior to ear challenge, and 24, 48 and 72 hour post challenge ear thickness was measured using an engineer's micrometers. Ear swelling is determined as the difference in thickness prior and post challenge. The data are expressed as percentage change from the vehicle treated groups given sensitisation and challenge.
DHEA, DHEAS were administered at various times, generally at time of sensitisation (day 0) and time of challenge (day 3 or 4-DTH model, day 4 or 5-(CS-model) in order to obtain an augmentation of the immune response above non-steroid treated animals.
Different doses of the inhibitors have been used, and compared to the effect of dexamethasone as potential immunosuppressive/anti-inflammatory agents.

In another experiment the test system is carrageenan pleurisy. Description: Carrageenan pleurisy. Type of experiment: in vivo, Wistar Rats. To be noted: FIG. 14; CT2251 10 mg/kg p.o. at -24 h and -1 h; six hours. As for the experimental part: Wistar Rats were anaesthetised and given intra-pleural injections of 0.5% carrageenan in saline at time 0. Six hours later the animals were killed and pleural cavity lavaged with 1 ml. citrated saline. Volume of fluid exudate and exudate cell concentration were measured. Animals were randomised to 5 treatment groups (n=6).

Experiment [2] relates to mouse contact sensitisation model. Briefly: Cellular infiltrate (anti-CD3 / anti-Mac-1 positive cells) in challenged ears, contact sensitisation. Type of experiment: in vivo, mice. Particulars: Experiment 7, FIG. 10, 24 h following challenge. As for the experimental part: Animals were randomised into 7 groups (n=7-10) and steroids given on days 0 and 5. At 24 h following challenge, ears were removed, fixed and stained with either an anti-CD3 (T-cells) or anti-Mac-1 (monocytes/macrophages) antibody and the number of positive cells counted in 10 random fields.

The subject of experiment [3] is rat delayed type hypersensitivity model. Briefly: Delayed type hypersensitivity in the rat. Type of experiment: in vivo, Lewis rats. To be noted: FIG. 12; CT2251 0.1, 1, 10 mg/kg s.c. days 0, 3 and 4; 24 and 48 h. As for the experimental part:
Lewis rats were sensitised with SRBC IV and challenged 4 days later with 10^8 SRBC into the footpad. The resulting swelling response was measured 24 and 48 h later. Rats were randomised into 5 groups (n=6-7) and steroids given on days 0, 3 and 4, subcutaneously. Results given as mean±sem.

Another experiment deals with T1, U937 DHEAS sulphatase (Homo sapiens, UniProt P08842).
T1 construct: DHEAS sulphatase activity in U937 cell extracts; endogenous in cells; host or cells: U937 cells (sonicate in Tris buffered saline with 1% Triton X-100)
T1 sequence (P08842 22-583): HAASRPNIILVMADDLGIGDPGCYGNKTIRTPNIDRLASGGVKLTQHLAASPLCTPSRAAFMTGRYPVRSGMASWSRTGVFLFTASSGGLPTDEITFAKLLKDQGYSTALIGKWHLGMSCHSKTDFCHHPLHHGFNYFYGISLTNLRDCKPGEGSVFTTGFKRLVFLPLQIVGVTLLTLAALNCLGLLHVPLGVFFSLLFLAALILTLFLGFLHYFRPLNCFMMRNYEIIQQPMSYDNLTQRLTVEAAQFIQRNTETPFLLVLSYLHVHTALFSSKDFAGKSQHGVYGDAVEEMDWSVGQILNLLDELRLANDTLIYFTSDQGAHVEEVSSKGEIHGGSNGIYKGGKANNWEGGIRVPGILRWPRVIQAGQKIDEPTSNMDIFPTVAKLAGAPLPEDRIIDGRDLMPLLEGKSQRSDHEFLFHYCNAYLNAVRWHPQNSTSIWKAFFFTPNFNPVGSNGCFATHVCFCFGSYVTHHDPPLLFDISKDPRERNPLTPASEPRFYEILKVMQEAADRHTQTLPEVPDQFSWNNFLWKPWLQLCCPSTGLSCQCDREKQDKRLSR
Briefly: DHEAS sulphatase activity in U937 cell extracts. In kind it is biochemical. As for the experimental part: c) DHEAS sulphatase activity in U937 cell extracts.
The inhibitors Ct 2211 and Ct 2251 were dissolved in 100% ethanol and 100% dimethyl sulphoxide (DMSO) respectively at stock concentrations of 20 mM. These were titrated in their respective solvents over a range of assay concentrations. The tritiated substrates DHEA sulphate and estrone sulphate were obtained from New England Nuclear and diluted in ethanol to give a final concentration of 70 nM for use in the assay. U937 cells were grown in RPLI containing 10% foetal bovine serum and harvested at a cell concentration of 1×10^6 /ml. These were washed in serum free medium stored at -70° C. at 1×10^8 /ml in Tris buffered saline pH7.4+1% triton X-100 and sonicated prior to use in the assay.
50 μl of substrate in ethanol was added to each assay tube and the solvent removed in a rotary vacuum evaporator. […] After centrifugation scintillation fluid was added to extract the desulphated substrate and the CPM present in an aliquot of the organic phase were counted using a beta counter.
In order to obtain total counts 10 μl of the aqueous fraction of the duplicate tubes containing only hot DHEA-s were counted after addition of scintillant and the total cpm calculated as follows: [formula] where vo +inhibitor-rate in the presence of inhibitor and vo -inhibitor=rate in the absence of inhibitor.
IC50 determined as described previously.

For experiment [4], the system named is mouse delayed type hypersensitivity model. Description: Delayed type hypersensitivity (SRBC, footpad swelling) in the mouse. Type of experiment: in vivo. To be noted: FIG. 11, 24 h post challenge. As for the experimental part: 2. Delayed Type Hypersensitivity (DTH)
On day 0, animals were injected intravenously with 10^6 washed SRBC in 0.1 ml saline. Four days later animals were challenged in the right hind footpad with 10^6 washed SRBC in 50 μl saline. Footpad thickness is measured prior to challenge, 24, 48 and 72 hours post challenge using calipers. Footpad swelling is determined as the difference in thickness prior and post challenge. The data are expressed as percentage change from the vehicle treated groups given sensitisation and challenge.
Animals were randomised into 10 groups (n=7-8) and steroids given on day 0 and 4.
Steroids were given on day 0 and 3 subcutaneously. Response at 24 h post challenge. Results given as mean±sem. $, *p<0.05 ANOVA.

Regarding `C[C@]12CC[C@@H]3c4ccc(OS(N)(=O)=O)cc4CC[C@H]3[C@@H]1CCC2=O` [CT 2251, Estrone 3-0-sulphamate], the “normal ear swelling response, inhibitor on its own” value in experiment [1] (Experiment 4, FIG. 7, CT2251 0.1 and 10 mg/kg s.c. days 0 and 4) is “significantly inhibited the normal ear swelling response”. Moreover, the “effect on DHEA-augmented ear swelling” value in experiment [1] (Experiment 4, FIG. 7, CT2251 0.1 and 10 mg/kg with DHEA 5 mg/kg s.c. days 0 and 4) was “not that seen with DHEA”. Also, in experiment [1] (Experiment 4, FIG. 7, CT2251 0.1 and 10 mg/kg with DHEAS 5 mg/kg s.c. days 0 and 4), the “effect on DHEAS-augmented ear swelling” value was “reversed the augmentation seen with DHEAS”. Besides, the “degree of ear swelling” value in experiment [1] (Experiment 5, FIG. 8, CT2251 0.001-0.3 mg/kg s.c. days 0 and 4, 24 h) is “inhibited by CT2251 treatment in a dose-dependent manner”. Besides, in experiment [1] (Experiment 6, FIG. 9, CT2251 0.1 mg/kg with DHEAS 5, 15, 50 mg/kg days 0 and 4, 24 h), the “inhibitory effect on ear swelling in presence of increasing substrate” value is on record as “can be reverse by increasing doses of DHEAS”. Moreover, the minimal effective dose in experiment [1] (Mus musculus, sc, Experiment 5, FIG. 8, s.c. days 0 and 4, 24 h, read-out: effective dose for inhibition of ear swelling) is at least 0.1 mg/kg. Besides, in the experiment on carrageenan pleurisy, the “reduction of cell infiltrate” value turned out to be 28% and the “reduction of exudate volume” value was 43%. Also, the “effect on DHEAS-augmented cell infiltrate” value in experiment [2] (CT2251 10 mg/kg with DHEAS 5 mg/kg) is “effectively reversed”. Further, the “number of infiltrating CD3 positive cells, inhibitor on its own” value in experiment [2] (CT2251 10 mg/kg) is on record as “able to further reduce the number of infiltrating CD3 positive cells”. In addition, the “DTH footpad swelling response” value in experiment [3] is given as “can also suppress a DTH response in rats”. For the same molecule, the pIC50 against U937 DHEAS sulphatase was 7.40. Moreover, the “inhibition of U937 sulphatase with estrone sulphate as substrate” value against U937 DHEAS sulphatase (FIG. 3, estrone sulphate substrate) is reported as “inhibit”. The “foot swelling response, inhibitor on its own” value in experiment [4] (CT2251 0.1 and 10 mg/kg s.c.) is “can markedly reduce the foot swelling response”. Moreover, the “effect on DHEAS-mediated augmentation of foot swelling” value in experiment [4] (CT2251 0.1 and 10 mg/kg with DHEAS 5 mg/kg s.c.) is “can effectively reverse the DHEAS-mediated augmentation”.
